Reference: patent US6458781B1, “Substituted diarylalkyl amides as calcium channel antagonists” (priority 1998, dated 2002)
Counter-ions that a name gives are not always drawn.

Key:
[1] = biological target: T1, N-type calcium channels in IMR32 human neuroblastoma cells (Homo sapiens, UniProt Q00975); experiment: FLPIMR assay (FLIPR, IMR32 cells); format: cell-based; details: nitrendipine present, read-out: FLP IMR IC50
T1 construct: expressing neuronal N-type calcium channels upon differentiation, was used for this assay; host or cells: IMR32 human neuroblastoma cells differentiated with dibutyryl cAMP and 5-bromo-2-deoxyuridine
T1 sequence (Q00975 whole entry): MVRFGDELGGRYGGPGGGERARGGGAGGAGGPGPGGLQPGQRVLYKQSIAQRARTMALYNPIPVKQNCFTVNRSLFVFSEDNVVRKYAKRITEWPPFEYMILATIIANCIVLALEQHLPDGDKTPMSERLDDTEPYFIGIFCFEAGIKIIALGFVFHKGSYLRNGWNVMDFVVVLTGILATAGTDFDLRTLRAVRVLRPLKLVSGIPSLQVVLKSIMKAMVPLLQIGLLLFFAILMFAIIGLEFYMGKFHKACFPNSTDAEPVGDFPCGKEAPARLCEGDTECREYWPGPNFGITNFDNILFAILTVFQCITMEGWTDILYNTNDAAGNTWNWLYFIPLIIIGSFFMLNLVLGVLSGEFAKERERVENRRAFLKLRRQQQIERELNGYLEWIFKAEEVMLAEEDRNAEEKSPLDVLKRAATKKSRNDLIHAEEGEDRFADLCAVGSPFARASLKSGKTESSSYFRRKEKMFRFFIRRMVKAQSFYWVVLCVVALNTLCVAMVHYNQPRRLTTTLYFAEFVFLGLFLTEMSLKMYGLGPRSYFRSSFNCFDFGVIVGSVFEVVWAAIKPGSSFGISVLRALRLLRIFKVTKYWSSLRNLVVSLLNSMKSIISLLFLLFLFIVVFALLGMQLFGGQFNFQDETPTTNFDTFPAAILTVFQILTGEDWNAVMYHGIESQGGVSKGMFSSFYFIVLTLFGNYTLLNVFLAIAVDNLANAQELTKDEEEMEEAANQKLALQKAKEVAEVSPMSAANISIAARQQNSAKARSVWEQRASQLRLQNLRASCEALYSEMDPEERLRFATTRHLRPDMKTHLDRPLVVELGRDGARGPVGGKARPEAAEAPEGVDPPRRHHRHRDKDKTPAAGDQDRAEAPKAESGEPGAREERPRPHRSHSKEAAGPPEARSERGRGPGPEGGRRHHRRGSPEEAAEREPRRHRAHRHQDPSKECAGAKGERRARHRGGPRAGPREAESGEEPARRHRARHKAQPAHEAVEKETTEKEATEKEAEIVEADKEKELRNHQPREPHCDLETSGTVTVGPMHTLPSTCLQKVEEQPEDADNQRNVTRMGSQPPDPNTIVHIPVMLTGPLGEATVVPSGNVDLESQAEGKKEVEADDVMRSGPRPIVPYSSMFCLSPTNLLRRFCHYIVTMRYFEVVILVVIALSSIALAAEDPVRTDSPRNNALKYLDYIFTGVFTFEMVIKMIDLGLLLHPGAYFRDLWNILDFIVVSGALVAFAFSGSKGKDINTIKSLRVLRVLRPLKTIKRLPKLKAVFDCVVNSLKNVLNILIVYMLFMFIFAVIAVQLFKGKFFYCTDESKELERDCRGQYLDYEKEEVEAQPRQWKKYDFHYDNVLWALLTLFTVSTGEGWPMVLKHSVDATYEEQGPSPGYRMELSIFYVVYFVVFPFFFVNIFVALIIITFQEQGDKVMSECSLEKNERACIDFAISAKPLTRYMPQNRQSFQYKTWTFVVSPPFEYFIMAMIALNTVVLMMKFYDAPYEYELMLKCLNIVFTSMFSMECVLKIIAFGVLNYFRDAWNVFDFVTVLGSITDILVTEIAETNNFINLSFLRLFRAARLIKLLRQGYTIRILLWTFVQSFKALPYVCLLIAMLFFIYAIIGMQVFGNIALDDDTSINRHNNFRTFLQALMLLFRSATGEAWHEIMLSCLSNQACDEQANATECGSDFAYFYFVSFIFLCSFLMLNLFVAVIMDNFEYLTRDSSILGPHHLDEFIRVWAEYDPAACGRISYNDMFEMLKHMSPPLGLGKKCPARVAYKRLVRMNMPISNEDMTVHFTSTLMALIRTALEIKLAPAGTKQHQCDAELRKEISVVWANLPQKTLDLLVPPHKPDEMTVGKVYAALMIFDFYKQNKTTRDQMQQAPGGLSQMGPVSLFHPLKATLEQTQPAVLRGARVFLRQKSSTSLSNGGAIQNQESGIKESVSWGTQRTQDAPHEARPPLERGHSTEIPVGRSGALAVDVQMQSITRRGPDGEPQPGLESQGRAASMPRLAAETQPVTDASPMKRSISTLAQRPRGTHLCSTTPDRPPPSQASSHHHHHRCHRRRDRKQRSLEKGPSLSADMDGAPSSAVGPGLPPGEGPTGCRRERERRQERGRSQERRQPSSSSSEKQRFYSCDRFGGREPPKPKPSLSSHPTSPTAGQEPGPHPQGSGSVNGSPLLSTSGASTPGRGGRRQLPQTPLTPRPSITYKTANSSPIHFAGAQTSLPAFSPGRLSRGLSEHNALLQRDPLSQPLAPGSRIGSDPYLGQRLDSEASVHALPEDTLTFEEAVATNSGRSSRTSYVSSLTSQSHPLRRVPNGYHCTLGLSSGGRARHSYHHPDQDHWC
T1 sequence (P54289 25-956 partner limits assumed): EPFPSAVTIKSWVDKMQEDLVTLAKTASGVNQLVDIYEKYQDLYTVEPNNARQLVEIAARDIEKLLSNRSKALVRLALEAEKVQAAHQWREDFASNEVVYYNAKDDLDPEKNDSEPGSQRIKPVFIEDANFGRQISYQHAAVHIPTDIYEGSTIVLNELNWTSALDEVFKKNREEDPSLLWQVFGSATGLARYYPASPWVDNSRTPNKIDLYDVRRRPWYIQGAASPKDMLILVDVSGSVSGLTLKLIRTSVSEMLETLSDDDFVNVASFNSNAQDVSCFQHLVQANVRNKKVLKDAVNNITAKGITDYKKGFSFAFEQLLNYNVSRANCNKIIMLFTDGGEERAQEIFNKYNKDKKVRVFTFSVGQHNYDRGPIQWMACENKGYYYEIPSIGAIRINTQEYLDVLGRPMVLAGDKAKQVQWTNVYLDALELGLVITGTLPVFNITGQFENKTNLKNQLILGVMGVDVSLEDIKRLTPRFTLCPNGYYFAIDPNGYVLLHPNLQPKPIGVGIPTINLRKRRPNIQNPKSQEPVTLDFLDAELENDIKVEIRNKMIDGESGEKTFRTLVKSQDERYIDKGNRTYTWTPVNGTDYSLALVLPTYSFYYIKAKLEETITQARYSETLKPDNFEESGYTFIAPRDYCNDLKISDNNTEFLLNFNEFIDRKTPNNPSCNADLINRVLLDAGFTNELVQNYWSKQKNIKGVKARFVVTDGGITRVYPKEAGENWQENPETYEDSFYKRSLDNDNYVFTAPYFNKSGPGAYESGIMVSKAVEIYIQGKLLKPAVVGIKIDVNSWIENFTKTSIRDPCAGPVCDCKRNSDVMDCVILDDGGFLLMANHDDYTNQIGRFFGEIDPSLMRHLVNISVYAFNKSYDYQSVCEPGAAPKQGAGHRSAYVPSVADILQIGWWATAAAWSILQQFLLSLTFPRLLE
T1 sequence (P54289 957-1103 partner limits assumed): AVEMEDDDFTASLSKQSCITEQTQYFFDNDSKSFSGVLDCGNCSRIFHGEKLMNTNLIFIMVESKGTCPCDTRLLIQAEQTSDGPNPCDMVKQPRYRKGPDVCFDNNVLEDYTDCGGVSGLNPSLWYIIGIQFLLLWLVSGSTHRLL
T1 sequence (Q02641 whole entry partner): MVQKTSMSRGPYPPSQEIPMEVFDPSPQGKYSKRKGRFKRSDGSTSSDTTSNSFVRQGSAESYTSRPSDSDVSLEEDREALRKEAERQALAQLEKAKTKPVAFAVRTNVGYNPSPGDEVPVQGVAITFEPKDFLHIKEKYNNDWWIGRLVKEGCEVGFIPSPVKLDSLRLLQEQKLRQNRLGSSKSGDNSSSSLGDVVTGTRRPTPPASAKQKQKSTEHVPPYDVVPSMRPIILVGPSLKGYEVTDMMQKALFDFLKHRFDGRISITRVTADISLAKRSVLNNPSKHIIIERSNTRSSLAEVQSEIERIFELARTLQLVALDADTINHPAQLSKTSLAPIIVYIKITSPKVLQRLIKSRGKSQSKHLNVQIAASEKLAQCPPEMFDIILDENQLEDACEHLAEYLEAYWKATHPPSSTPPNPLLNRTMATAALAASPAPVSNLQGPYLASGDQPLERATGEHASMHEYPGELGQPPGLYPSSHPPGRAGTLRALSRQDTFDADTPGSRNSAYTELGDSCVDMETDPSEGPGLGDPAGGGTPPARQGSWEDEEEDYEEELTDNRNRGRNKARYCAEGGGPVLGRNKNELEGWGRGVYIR
Method: In Vitro Protocol: FLPIMR Assays
Calcium flux through voltage-sensitive calcium channels was assessed by time-resolved monitoring of the fluorescence of pre-loaded intracellular calcium-sensitive dyes using FLIPR, a fluorescent image plate reader (Molecular Devices Co.). The IMR32 human neuroblastoma cell line (ATCC, CRL-127), expressing neuronal N-type calcium channels upon differentiation, was used for this assay. IMR32 cells were grown in MEM media (Gibco BRL, 11095-080), supplemented with 10% fetal bovine serum (Gibco BRL, 26140-087), 1% antibiotic-antimycotic (Gibco BRL, 15240-096), 1% L-glutamine (Gibco BRL, 25030-032). Cells, grown to confluency, were differentiated for a period of 7-10 days, or longer, by adding 1 mM dibutyryl cAMP (Sigma D-0627) and 2.5 μM 5-bromo-2-deoxyuridine (Sigma B-9285) to the media. The differentiation media was fed continuously to cells until the cells were used in an experiment.
Differentiated cells were removed from T150 flasks by aspirating media and adding 10 mL harvesting solution consisting of 0.5 mM EDTA in DPBS without calcium or magnesium (Gibco BRL, 14190-144). Cells were then centrifuged at 1500 rpm (≈500 g) for 3 minutes in a Beckman tabletop centrifuge in order to remove the harvesting solution. Cells were resuspended in 10 mL of media containing 1 μM Oregon Green 488 Bapta-1 dye (Molecular Probes, O-6807) and placed in a 37° C. shaking waterbath for 1 hour. The dye-containing media was then diluted with 40 mL buffer (composition in mM: 1.25 CaCl2, 1.2 MgSO4, 11 glucose, 10 HEPES, 3.0 KCl, 137.0 NaCl, pH 7.4 with Tris base) and cells were centrifuged at 1500 rpm (≈500 g) for 3 minutes. Cells were resuspended and washed a second time with 40-50 mL incubation buffer. After centrifugation, cells were resuspended and 200 μL aliquots were plated on black-sided 96-well plates (Costar, 3603) for use in FLIPR. The plates of cells were centrifuged at 750 rpm (≈100 g) for 1.5 minutes to settle the cells to the bottom of the wells. Cells were given one final wash at setting BF1F in a Denley Cellwash (Labsystems, CW018B). The residual buffer volume was adjusted to 50 μL. A 5-minute drug-preincubation period at 35° C. was initiated when 50 μL of drug-containing buffer was pipetted into the cell plate with the 96-well pipettor integrated in the FLIPR apparatus. Nitrendipine, at a concentration of 4 μM, was included in this buffer, in addition to compounds of the present invention at various concentrations. […] Fluorescent counts were monitored at 20 s intervals for 360 s, beginning 60 s prior to the delivery of drug-containing buffer. Following drug addition, 100 μL aliquots of a high K^+, depolarizing stimulus (composition in mM: 1.25 CaCl2, 1.2 MgSO4, 11 glucose, 10 HEPES, 140.0 KCl, pH 7.4 with Tris base) were added to each well, and fluorescence was monitored at 1 s intervals for 120 s, beginning 10 s prior to the stimulus addition. CCD camera exposure time was 0.4 s; laser excitation was at 488 nm with a power of 0.2-0.5W; and a 510 to 560 nm bandpass interference filter preceded the camera.
Data was analyzed as a summation of fluorescent counts above basal during the stimulation period (an approximation of area under the curve), after normalizing the data with a spatial uniformity correction (for variations in laser illumination and cell density) and a negative control correction (zero calcium increase defined as the fluorescence reading in the presence of saturating pharmacologic block of the N-type calcium channel). […] This component was not included in any calculations.
Drug effects were expressed as percent inhibition of fluorescence from an average of 8 K^+-stimulated wells which were pre-treated in the drug incubation period with buffer only. Data was analyzed using FLIPR software and Microsoft Excel spreadsheet software.

[2] = tested on: acetic acid-induced writhing in Swiss-Webster mice; experiment: Anti-writhing test in mice (AW); format: in vivo; details: 10 mg/kg
Text: Anti-Writhing Test in Mice (AW) Test Protocol
The purpose of this test is to evaluate drugs for analgesic-like activity. The AW test determines the effect of drugs on the response to a presumed painful stimulus in mice and is used as a preliminary in vivo procedure for the identification of potential analgesic agents.
Known analgesics with low, moderate, or high efficacy in man allow mice to tolerate intra-peritoneal administration of dilute acetic acid as evidenced by lesser incidence of writhing movements. The AW test measures the nociceptive response to acetic acid in mice and provides an objective, reliable, and quantitative estimate of efficacy and potency of potential analgesic compounds. This test serves as a preclinical predictor of analgesic activity.
Subjects are male Swiss-Webster mice (25-35 g).
Compounds are dissolved or suspended in physiological saline containing 2% Emulphor. Suspensions are subjected to ultrasonication for 3 minutes. Drug doses are expressed as the active moiety and are normally administered to mice (10, 30, and 100 mg/kg IP, SC, PO, or IM) in a volume of 10 mL/kg, 1 hour prior to testing; ICV doses (in μg/kg) are administered in a volume of 0.5 mL/kg, 5 minutes prior to testing. Animals dosed PO are fasted for 16 hours prior to dosing. Groups of eight mice are tested with each dose or the vehicle solution (control group).
Mice are treated with a dilute solution of acetic acid (0.6%, 10 mL/kg IP) which elicits writhing. In four successive trials, one pair of mice from each treatment group is placed in one of four adjacent clear plexiglas chambers (4 in×4 in×4 in). This allows the simultaneous observation of four pairs of mice representing all treatments and controls throughout the test. Writhing movements (abdominal contractions, stretching of the torso and hind legs, and concave arching of the back) are counted for 5 minutes commencing 7 minutes after acetic acid administration.
Drug effects on acetic acid-induced writhing are expressed as percent suppression of writhing relative to the vehicle-treated control group run in parallel with treated animals. The writhing tallies from pairs of animals are summed for each treatment and are divided by the summed writhing in the control group. The ED50s for suppression of writhing are determined by nonlinear regression analysis.

Molecule: CN[C@H](CC(C)C)C(=O)NCCCC(c1ccc(F)cc1)c1ccc(F)cc1 [Example 71, (R)-4-Methyl-2-methylamino-pentanoic acid [4,4-bis-(4-fluorophenyl)-butyl]-amide monohydrochloride]
- IC50 [1]: 2500 nM
- Anti-Writhing % Protection (dose) [2]: 33.9% @ 10 mg/kg

Molecule: CC(C)C[C@H](O)C(=O)NCCCC(c1ccc(F)cc1)c1ccc(F)cc1 [Example 72, (S)-2-Hydroxy-4-methyl-pentanoic acid [4,4-bis-(4-fluoro-phenyl)-butyl]-amide]
- IC50 [1]: 1900 nM

Molecule: CN[C@H](C(=O)NCCCC(c1ccc(F)cc1)c1ccc(F)cc1)C(C)C [Example 73, (S)-3-Methyl-2-methylamino-butanoic acid [4,4-bis-(4-fluorophenyl)-butyl]-amide monohydrochloride]
- IC50 [1]: 3900 nM
- Anti-Writhing % Protection (dose) [2]: 90.4% @ 10 mg/kg

Molecule: CNCC(=O)NCCCC(c1ccc(F)cc1)c1ccc(F)cc1 [Example 74, N-[4,4-Bis-(4-fluoro-phenyl)-butyl]-2-methylamino-acetamide]
- IC50 [1]: 2900 nM

Molecule: CN[C@@H](CNCCCC(c1ccc(F)cc1)c1ccc(F)cc1)CC(C)C [Example 77, (R)-N^1-[4,4-Bis-(4-fluoro-phenyl)-butyl]-4-N^2-dimethyl-pentane-1,2-diamine]
- IC50 [1]: 2200 nM
- Anti-Writhing % Protection (dose) [2]: 43.4% @ 10 mg/kg

Molecule: CC(C)CN(C)CC(=O)NCCCC(c1ccc(F)cc1)c1ccc(F)cc1 [Example 78, N-[4,4-Bis-(4-fluoro-phenyl)-butyl]-2-(isobutyl-methyl-amino)-acetamide]
- IC50 [1]: 1600 nM
- Anti-Writhing % Protection (dose) [2]: 0% @ 10 mg/kg

Molecule: (S)-N^1-[4,4-Bis-(4-fluoro-phenyl)-butyl]-4-N^2-dimethyl-pentane-1,2-diamine [Example 76]
- IC50 [1]: 2200 nM
- Anti-Writhing % Protection (dose) [2]: 20.9% @ 10 mg/kg
